Data from article PMC12028158, “Synthesis and In Vitro Evaluation of the Anticancer Effect of Novel Phosphonium Vindoline Derivatives” (International Journal of Molecular Sciences, 2025).

Key:
Type in all cases: cell-based
IGROV1 [1] = assay: NCI60 five-dose screen; conditions: Homo sapiens, IGROV-1; IGROV1, Ovarian Cancer, five-dose; read-out: GI50
HOP-62 = assay: NCI60 five-dose screen; conditions: Homo sapiens; HOP-62, Non-small Cell Lung Cancer, five-dose; read-out: GI50
HS 578T = assay: NCI60 one-dose screen; conditions: Homo sapiens; HS 578T, 10 μM, one-dose; read-out: Growth percent
SK-MEL-5 = assay: NCI60 one-dose screen; conditions: Homo sapiens; SK-MEL-5, 10 μM, one-dose; read-out: Growth percent
MDA-MB-435 [2] = assay: NCI60 one-dose screen; conditions: Homo sapiens; MDA-MB-435, 10 μM, one-dose; read-out: Growth percent
HL-60(TB) = assay: NCI60 five-dose screen; conditions: Homo sapiens, HL-60, HL-60(TB), Leukemia, five-dose; read-out: GI50
EKVX [3] = assay: NCI60 one-dose screen; conditions: Homo sapiens, 10 μM, one-dose, read-out: Growth percent
RPMI-8226 = assay: NCI60 five-dose screen; conditions: Homo sapiens; RPMI-8226, Leukemia, five-dose; read-out: GI50
HCC-2998 = assay: NCI60 five-dose screen; conditions: Homo sapiens; HCC-2998, Colon Cancer, five-dose; read-out: GI50
MALME-3M [4] = assay: NCI60 five-dose screen; conditions: Homo sapiens; MALME-3M, Melanoma, five-dose; read-out: GI50
HOP-92 = assay: NCI60 five-dose screen; conditions: Homo sapiens; HOP-92, Non-small Cell Lung Cancer, five-dose; read-out: GI50
NCI-H23 = assay: NCI60 one-dose screen; conditions: Homo sapiens; NCI-H23, 10 μM, one-dose; read-out: Growth percent
OVCAR-3 = assay: NCI60 five-dose screen; conditions: Homo sapiens; OVCAR-3, Ovarian Cancer, five-dose; read-out: GI50
A498 = assay: NCI60 five-dose screen; conditions: Homo sapiens; A498, Renal Cancer, five-dose; read-out: GI50
Breast Cancer panel = assay: NCI60 five-dose screen, panel mean; conditions: Homo sapiens; mean over Breast Cancer panel; read-out: Mean GI50
OVCAR-4 = assay: NCI60 five-dose screen; conditions: Homo sapiens; OVCAR-4, Ovarian Cancer, five-dose; read-out: GI50
CCRF-CEM [5] = assay: NCI60 one-dose screen; conditions: Homo sapiens, 10 μM, one-dose, read-out: Growth percent
DU-145 = assay: NCI60 one-dose screen; conditions: Homo sapiens; DU-145, 10 μM, one-dose; read-out: Growth percent
NCI-H522 = assay: NCI60 five-dose screen; conditions: Homo sapiens; NCI-H522, Non-small Cell Lung Cancer, five-dose; read-out: GI50
MDA-MB-435 [6] = assay: NCI60 five-dose screen; conditions: Homo sapiens; MDA-MB-435, Melanoma, five-dose; read-out: GI50
MALME-3M [7] = assay: NCI60 one-dose screen; conditions: Homo sapiens; MALME-3M, 10 μM, one-dose; read-out: Growth percent
CNS Cancer panel = assay: NCI60 five-dose screen, panel mean; conditions: Homo sapiens; mean over CNS Cancer panel; read-out: Mean GI50
SF-295 = assay: NCI60 five-dose screen; conditions: Homo sapiens; SF-295, CNS Cancer, five-dose; read-out: GI50
A549/ATCC = assay: NCI60 five-dose screen; conditions: Homo sapiens; A549/ATCC, Non-small Cell Lung Cancer, five-dose; read-out: GI50
ACHN [8] = assay: NCI60 one-dose screen; conditions: Homo sapiens, 10 μM, one-dose, read-out: Growth percent
HT29 = assay: NCI60 one-dose screen; conditions: Homo sapiens, HT-29; HT29, 10 μM, one-dose; read-out: Growth percent
SNB-19 = assay: NCI60 one-dose screen; conditions: Homo sapiens; SNB-19, 10 μM, one-dose; read-out: Growth percent
LOX IMVI = assay: NCI60 one-dose screen; conditions: Homo sapiens, 10 μM, one-dose, read-out: Growth percent
CCRF-CEM [9] = assay: NCI60 five-dose screen; conditions: Homo sapiens, Leukemia, five-dose, read-out: GI50
MDA-MB-468 = assay: NCI60 five-dose screen; conditions: Homo sapiens, MDA-MB-468, MDA-MB-468, Breast Cancer, five-dose; read-out: GI50
COLO 205 [10] = assay: NCI60 five-dose screen; conditions: Homo sapiens, COLO 205, COLO 205, Colon Cancer, five-dose; read-out: GI50
ACHN [11] = assay: NCI60 five-dose screen; conditions: Homo sapiens, Renal Cancer, five-dose, read-out: GI50
SF-268 [12] = assay: NCI60 five-dose screen; conditions: Homo sapiens; SF-268, CNS Cancer, five-dose; read-out: GI50
EKVX [13] = assay: NCI60 five-dose screen; conditions: Homo sapiens, Non-small Cell Lung Cancer, five-dose, read-out: GI50
U251 = assay: NCI60 five-dose screen; conditions: Homo sapiens, U-251, U251, CNS Cancer, five-dose; read-out: GI50
SF-539 = assay: NCI60 one-dose screen; conditions: Homo sapiens; SF-539, 10 μM, one-dose; read-out: Growth percent
SN12C = assay: NCI60 five-dose screen; conditions: Homo sapiens, Renal Cancer, five-dose, read-out: GI50
NCI-H460 = assay: NCI60 one-dose screen; conditions: Homo sapiens; NCI-H460, 10 μM, one-dose; read-out: Growth percent
[14] = system: 60 human tumor cell lines (NCI60); assay: NCI60 one-dose screen, overall mean; conditions: one-dose
T-47D = assay: NCI60 five-dose screen; conditions: Homo sapiens, T47D; T-47D, Breast Cancer, five-dose; read-out: GI50
IGROV1 [15] = assay: NCI60 one-dose screen; conditions: Homo sapiens, IGROV-1; IGROV1, 10 μM, one-dose; read-out: Growth percent
TK-10 = assay: NCI60 five-dose screen; conditions: Homo sapiens; TK-10, Renal Cancer, five-dose; read-out: GI50
COLO 205 [16] = assay: NCI60 one-dose screen; conditions: Homo sapiens; COLO 205, 10 μM, one-dose; read-out: Growth percent
SK-MEL-2 = assay: NCI60 one-dose screen; conditions: Homo sapiens; SK-MEL-2, 10 μM, one-dose; read-out: Growth percent
KM12 = assay: NCI60 five-dose screen; conditions: Homo sapiens, KM12, KM12, Colon Cancer, five-dose; read-out: GI50
SF-268 [17] = assay: NCI60 one-dose screen; conditions: Homo sapiens; SF-268, 10 μM, one-dose; read-out: Growth percent
SW-620 = assay: NCI60 five-dose screen; conditions: Homo sapiens; SW-620, Colon Cancer, five-dose; read-out: GI50

In the case of `CC[C@]12C=CCN3CC[C@@]4(c5ccc(OC)cc5N(C)[C@H]4[C@@](O)(C(=O)OC)[C@@H]1OC(=O)CCC[P+](c1ccc(OC)cc1)(c1ccc(OC)cc1)c1ccc(OC)cc1)[C@@H]32` [9b], the GI50 (IGROV1 [1]) is reported as 533 nM, the GI50 (HOP-62) is reported as 1660 nM and the activity at 10 µM (HS 578T) is reported as -65.4%. It also gave an activity at 10 µM (SK-MEL-5) of -99.6%, an activity at 10 µM (MDA-MB-435 [2]) of -76.9% and a GI50 (HL-60(TB)) of 256 nM. The activity at 10 µM (EKVX [3]) was -85%, the GI50 (RPMI-8226) was 275 nM and the GI50 (HCC-2998) was 498 nM. For the same molecule, the GI50 (MALME-3M [4]) was 624 nM, the GI50 (HOP-92) was 344 nM and the activity at 10 µM (NCI-H23) was -92.5%. It also gave a GI50 (OVCAR-3) of 624 nM, a GI50 (A498) of 2340 nM and a GI50 (Breast Cancer panel) of 640 nM. The GI50 (OVCAR-4) was 760 nM, the activity at 10 µM (CCRF-CEM [5]) was -71.2% and the activity at 10 µM (DU-145) was -75.4%. It also gave a GI50 (NCI-H522) of 391 nM, a GI50 (MDA-MB-435 [6]) of 480 nM and an activity at 10 µM (MALME-3M [7]) of -97.8%. The GI50 (CNS Cancer panel) was 1020 nM, the GI50 (SF-295) was 1920 nM and the GI50 (A549/ATCC) was 731 nM. It also gave an activity at 10 µM (ACHN [8]) of -95.8%, an activity at 10 µM (HT29) of -84.3% and an activity at 10 µM (SNB-19) of -96.7%. It also gave an activity at 10 µM (LOX IMVI) of -96.4%, a GI50 (CCRF-CEM [9]) of 887 nM and a GI50 (MDA-MB-468) of 241 nM. It also gave a GI50 (COLO 205 [10]) of 194 nM, a GI50 (ACHN [11]) of 458 nM and a GI50 (SF-268 [12]) of 1210 nM. For the same molecule, the GI50 (EKVX [13]) was 1060 nM, the GI50 (U251) was 360 nM and the activity at 10 µM (SF-539) was -98.9%. The GI50 (SN12C) was 672 nM, the activity at 10 µM (NCI-H460) was -85.2% and the activity at 10 µM ([14]; Homo sapiens, mean over 60 cell lines, 10 μM, read-out: Mean growth percent) was -76.2%. The “average reduction / average cell death” value ([14]; 10 µM, average over cell lines) was “more than 70%”, the GI50 (T-47D) was 353 nM and the activity at 10 µM (IGROV1 [15]) was -92.1%. It also gave a GI50 (TK-10) of 1510 nM, an activity at 10 µM (COLO 205 [16]) of -64.4% and an activity at 10 µM (SK-MEL-2) of -90.6%. The GI50 (KM12) was 628 nM, the activity at 10 µM (SF-268 [17]) was -34.3% and the GI50 (SW-620) was 844 nM.
